We go through one molecule from patent US20240269304A1, “BCL-XL INHIBITOR ANTIBODY-DRUG CONJUGATES AND METHODS OF USE THEREOF” (Novartis AG, priority 2020, published 2024).

Where two headings read alike, the source gives them in different places.

For one test, the system named is HPB-ALL (T-ALL). Nature of the test: CellTiter-Glo viability 72 h, single agent or 1/1 combination with vincristine, ABT-199 or Compound A2, HPB-ALL (Example 9). Format: cell-based. The conditions noted are these: Homo sapiens, HPBALL, single agent or 1/1 combination as labelled. The procedure:
(§1) Cell lines were cultured in the media described above at 37° C. in a humidified atmosphere containing 5% CO2. Cells were seeded in 96 well clear bottom plates (96 well clear-bottom, white, Corning reference 3903) and exposed to the payloads or ADCs at single agents or in 1/1 combinations with vincristine, ABT-199 or compound A2 for 72 h (serially diluted; 9 concentrations each, triplicates). Effects of payloads or ADCs on cell viability were assessed after 3 days of incubation at 37° C./5% CO2 by quantification of cellular ATP levels using CellTiter-Glo reagent (Promega Ref: G7571) at 75 μL reagent/well. All the conditions were tested in triplicates. Luminescence was quantified on a multipurpose plate reader. IC50s were calculated using standard four-parametric curve fitting. […] Each experiment was performed at least twice, with results being reproducible.
(In general: ATP-based viability assays read luminescence as a measure of living cells.)

A further test has as its system SUDHL8 (DLBCL). The test can be described thus: CellTiter-Glo viability 72 h, single agent or 1/1 combination, SUDHL8 (Example 9). Format: cell-based. The conditions noted are these: Homo sapiens, SU-DHL-8, single agent or 1/1 combination as labelled. The procedure: as §1
For another test, the system named is MM1S (MM). The test can be described thus: CellTiter-Glo viability 72 h, single agent or 1/1 combination, MM1S (Example 9). Format: cell-based. The conditions noted are these: Homo sapiens, MM1.S, single agent or 1/1 combination as labelled. The procedure:
as §1

The next test has as its system corl279. Nature of the test: In vitro ADC activity with combination partners (Venetoclax, Topotecan), CellTiter-Glo 5 days, corl279 (Example 13). The conditions noted are these: single agent. The test is classed as cell-based. The procedure:
(§2) Antibody drug conjugates (ADCs) targeting IgG, B7H3, CD56, DLK1, DLL3, EpCAM, and SEZ6 were tested against cancer cell lines obtained from ATCC (American Type Culture Collection) or from other commercial cell line vendors (cor1279, ncih1436, ncih146, ncih211, ncih524). The cells were cultured in media that is optimal for their growth at 5% CO2, 37° C. in a tissue culture incubator. Prior to seeding for the proliferation assay, the cells were split at least 2 days before the assay to ensure optimal growth density. On the day of seeding, cells were lifted off tissue culture flasks using 0.25% trypsin. Cell viability and cell density were determined using a cell counter (Vi-Cell XR Cell Viability Analyzer, Beckman Coulter). Cells with higher than 85% viability were seeded in white clear bottom 384-well plates (Greiner cat #781098) at a density of 1000 cells per well in 50 μL of standard growth media. Plates were incubated at 37° C. overnight in a tissue culture incubator.
(§3) The ADCs were prepared in standard phosphate buffered solution to desired concentrations. A series of 10 dilutions were made for each ADC. The prepared drug treatments were then added to the cells resulting in final concentrations of 300 nM to 0.015 nM. Combination partners (Venetoclax and Topotecan) were added at fixed concentrations. Acoustic transfer devices (Echo525, Echo550, Beckman Coulter) were used to add the ADCs or combination partners to the cells. Each treatment was tested in triplicate assay plates. Plates were incubated at 37° C. overnight or for 5 days in a tissue culture incubator. The ability of the ADCs to inhibit cell proliferation and survival was assessed using the Promega CellTiter-Glo® proliferation assay. Plates were incubated at room temperature for 20 minutes to stabilize luminescent signals prior to reading using a multimode plate reader (Pherastar, BMG). Luminescent counts of untreated cells were taken the day after seeding (Day 0 readings), and after 5 days of treatment (Day 5 readings). The Day 5 readings of the untreated cells were compared to the Day 0 readings. Assays with at least one cell doubling during the incubation period were considered valid. To evaluate the effect of the drug treatments, luminescent counts from wells containing untreated cells (100% viability) were used to normalize treated samples. The concentrations of treatment required to inhibit 50% of cell growth or survival ([…]) were calculated using a four parameter logistic regression equation.

Another test deals with DND-41 cells. The test can be described thus: CellTiterGlo (CTG) cell viability, 72 h, DND-41 (Example 8). Format: cell-based. In outline:
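DND-41 cells in RPMI with 10% heat-inactivated FBS exposed to payloads or ADCs for 3 days at 37° C/5% CO2, in triplicate. Viability measured as cellular ATP by CellTiterGlo luminescence; IC50 from four-parameter fit.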

A further test deals with ncih146. The test can be described thus: In vitro ADC activity with combination partners, CellTiter-Glo 5 days, ncih146 (Example 13). Format: cell-based. As to conditions: single agent. The procedure: as §2, §3
Another test concerns H1650 cells. Nature of the test: CellTiterGlo (CTG) cell viability, 3D, 120 h, H1650 (Example 8). The conditions noted are these: Homo sapiens, NCI-H1650, H1650 3D. Format: cell-based, human.
Another test relates to ncih1436. Nature of the test: In vitro ADC activity with combination partners, CellTiter-Glo 5 days, ncih1436 (Example 13). As to conditions: single agent. The test is classed as cell-based. The procedure: as §2, §3

As to `Cc1c(Nc2nc3ccccc3s2)nnc2c1CCCN2c1ccc(-c2cnn(C[C@]34C[C@]5(C)C[C@](C)(C3)C[C@@](OCCN3CCCC3)(C5)C4)c2C)c(C(=O)O)n1` [P21, 6-[3-(1,3-benzothiazol-2-ylamino)-4-methyl-6,7-dihydro-5H-pyrido[2,3-c]pyridazin-8-yl]-3-[1-[[3,5-dimethyl-7-(2-pyrrolidin-1-ylethoxy)-1-adamantyl]methyl]-5-methyl-pyrazol-4-yl]pyridine-2-carboxylic acid], the concentration for half-maximal inhibition (IC50) (usually the concentration needed to halve the response being measured) with HPB-ALL (T-ALL) (mean, read-out: HPB-ALL (T-ALL) IC50 mean) came to 1.01 nM; with HPB-ALL (T-ALL) (n1, read-out: HPB-ALL (T-ALL) IC50 n1) it was 1.33 nM; in the test with HPB-ALL (T-ALL) (n2, read-out: HPB-ALL (T-ALL) IC50 n2), 0.69 nM; with SUDHL8 (DLBCL) (mean, read-out: SUDHL8 (DLBCL) IC50 mean) it was 0.24 nM; in the test with SUDHL8 (DLBCL) (n1, read-out: SUDHL8 (DLBCL) IC50 n1), 0.34 nM; in the test with SUDHL8 (DLBCL) (n2, read-out: SUDHL8 (DLBCL) IC50 n2) it was 0.14 nM. Besides, the half-maximal inhibitory concentration (IC50) in the test with MM1S (MM) (mean, read-out: MM1S (MM) IC50 mean) stood at 17.4 nM; in the test on MM1S (MM) (n1, read-out: MM1S (MM) IC50 n1) it was 10.4 nM; with MM1S (MM) (n2, read-out: MM1S (MM) IC50 n2) it was 24.3 nM; in the test on DND-41 cells (DND41, experiment n1, read-out: DND41 CTG 72 h IC50 nM n1) it was 0.31 nM; in the test with DND-41 cells (DND41, experiment n2, read-out: DND41 CTG 72 h IC50 nM n2), 0.2 nM; in the test on DND-41 cells (DND41, mean of n1 and n2, read-out: DND41 CTG 72 h IC50 nM Mean of n1 and n2) it was 0.26 nM. The IC50 with H1650 cells (experiment n1, read-out: H1650 3D CTG IC50 n1) was 0.31 nM; in the test with H1650 cells (experiment n2, read-out: H1650 3D CTG IC50 n2), 0.37 nM; with H1650 cells (mean of n1 and n2, read-out: H1650 3D CTG IC50 Mean of n1 and n2), 0.34 nM. Moreover, the concentration for 50% growth inhibition (GI50) – broadly, the concentration giving 50% growth inhibition – in the test on corl279 (Homo sapiens, COR-L279, 120 h) was found to be 0.00242 µM; in the test with ncih146 (Homo sapiens, NCI-H146, 120 h), 0.000508 µM; with ncih1436 (Homo sapiens, NCI-H1436, 120 h), 0.000508 µM. Also, the “GI Amax corl279” value in the test on corl279 was −88.27. In addition, the “GI Amax ncih146” value in the test with ncih146 is −98.38. For the same molecule, in the test on ncih1436, the “GI Amax ncih1436” value was −94.5.
